Test results as given in patent publication US8785473B2, “Plasminogen activator inhibitor-1 inhibitor” (Renascience Co., Ltd., priority 2009, dated 2014).
Marks after values point to notes of the source that are not given here. Values belong to the compound of their own block, whether it stands above or below them.

How the values were obtained:
[1] = test system: rat model of ferric chloride-induced thrombosis; assay: Test Example 3: antithrombotic effect confirmation test in a rat model of ferric chloride-induced thrombosis; assay type: in vivo; settings: SD rats, 0.3 mg/kg or 1 mg/kg orally 2 hours before operation, compared to the vehicle group (FIG. 1)
Description: The antithrombotic effect of each of compounds (4), (13), (68), and (79) prepared in Examples 4, 13, 68, and 79 (hereinafter referred to as a test compound) was confirmed using a rat model of ferric chloride-induced thrombosis.
Male 9-week-old SD rats (Japan SLC) were used, and divided into a vehicle group and a test compound group (each having n=10). Two hours before the operation for performing a test, in the test compound group, a 0.5% aqueous sodium carboxymethylcellulose (CMC) solution obtained by suspending a test compound in a mortar was added so that the test compound was orally administered in an amount of 0.3 mg/kg or 1 mg/kg. In the vehicle group, a 0.5% CMC aqueous solution that contained no test compound was orally administered. Two hours after oral administration, the rats in each group were anesthetized using […]., and the following operations were performed on a heat pad that had been kept at 38° C.
An incision was made on the cervical skin, and the left carotid artery was exposed in such a manner that the cervical skeletal muscle was not injured. The adhesion tissue was carefully peeled off. Silk thread was placed over the carotid artery, and filter paper was put on the backside of the carotid artery to prevent effusion and facilitate experiment operations. A semicircular tube 5 mm in length (SP 110, inside diameter: 1.5 mm, produced by Natsume Seisakusho Co., Ltd.) was placed on the filter paper, and the blood vessel was placed in the tube. The carotid artery blood flow was measured using a cuff-type Doppler blood flow meter (inside diameter: 1 mm) placed at the periphery side, and recorded on a recorder (Graphtec WR3320) via an amplifier (Nihon Kohden, RMP-6004M). After the carotid artery blood flow was confirmed, filter paper (Whatman, No. 1, 2.5 mm×4.2 mm), to which 2 μL of physiological saline comprising 35% (w/w) ferric chloride was added dropwise, was wrapped around the origin of the carotid artery (the filter paper was positioned so that the length in the blood vessel circumferential direction was 4.2 mm). […]

[2] = biological target: T1, PAI-1 (Homo sapiens, UniProt P05121); assay: biochemical; settings: read-out: PAI-1 activity %
T1 sequence (P05121 24-402): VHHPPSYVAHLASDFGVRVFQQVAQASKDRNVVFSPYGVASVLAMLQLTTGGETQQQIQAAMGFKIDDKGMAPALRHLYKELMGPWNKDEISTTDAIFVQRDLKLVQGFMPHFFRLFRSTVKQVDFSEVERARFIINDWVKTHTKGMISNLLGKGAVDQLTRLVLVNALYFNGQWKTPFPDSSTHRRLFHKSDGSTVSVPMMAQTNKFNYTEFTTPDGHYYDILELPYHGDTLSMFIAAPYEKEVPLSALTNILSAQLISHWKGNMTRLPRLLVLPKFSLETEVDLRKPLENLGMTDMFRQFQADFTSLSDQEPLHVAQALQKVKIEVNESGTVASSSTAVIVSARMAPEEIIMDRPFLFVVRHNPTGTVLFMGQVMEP
Experimental: The final mixture contained 50 mM Tris-HCl (pH 8), 150 mM NaCl, 1% DMSO, 0.1% PEG-6000, 0.2 mM CHAPS, 5 nMPAI-1, 2 nM t-PA, 0.2 mM Spectrozyme t-PA synthetic substrate, and the compound (10 μM or 2.5 μM).

[3] = biological target: T1, PAI-1; assay: Reference Test Example (1): measurement of PAI-1 inhibitory activity (S-2288), comparison with tiplaxtinin; assay type: biochemical; parameters: purchased Molecular Innovations, Inc. (USA); settings: concentrations of 35 μM and 50 μM (FIG. 2)
Experimental: The final mixture contained 100 mM Tris-HCl (pH 8), 30 mM NaCl, 1% DMSO, 0.1% Tween 80, 67 nM PAI-1, 9.8 nM t-PA, 1 mM S-2288, and test compound a or b (20, 35, or 50 μM).
[…] P-nitroaniline removed from the chromogenic substrate (S-2288) by t-PA action was measured using a spectrophotometer at an absorbance of 405 nm at 5-minute intervals for 30 minutes.
Comparative tests were carried out in the same manner using, in place of the above test compounds, a compound (tiplaxtinin) of the formula below that is used as an antithrombotic drug in US clinical trials (concentration: 20, 35, and 50 μM).
FIGS. 2 (A), (B), and (C) show PAI-1 activity (%) when compound a (concentrations: 20, 35, and 50 μM), compound b (concentrations: 20, 35, and 50 μM), and tiplaxtinin (comparative compound) (concentrations: 20, 35, and 50 μM) were added, respectively. The results reveal that compounds a and b had higher PAI-1 activity inhibitory action at concentrations of 35 μM and 50 μM than tiplaxtinin (comparative compound) (PAI-1 inhibitory activity).

[4] = biological target: T1, PAI-1; assay: Reference Test Example (2): evaluation of fibrinolytic action (fibrin plate, PAI-1 + t-PA); assay type: biochemical; parameters: purchased Molecular Innovations, Inc. (USA); settings: mixture of PAI-1, t-PA and test compound on fibrin plate, 18 hours, lysis area
Experimental: The fibrinolytic action of Compounds a and b were evaluated in accordance with the document (Matsuo, O. et al., Haemostasis, 16, 43-50 (1986)).
Specifically, an aqueous solution (containing 25 mM barbital-sodium, 50 mM NaCl, and 25 mM CaCl2) containing a concentration of 1.5 mg/mL of fibrinogen (produced by Organon Teknica) was added, on a 9 cm-plate, to thrombin dissolved in 0.2 mL of physiological saline (10NIH U/mL: produced by Mochida Pharmaceutical Co., Ltd.), and the mixture was allowed to stand at room temperature for 2 hours. Using this mixture, fibrinolysis assay was conducted.
Namely, a mixture of PAI-1, t-PA, and a test compound was added dropwise to the plate and incubated at room temperature for 18 hours. Then, fibrinolysis due to plasminogen activation was measured from the lysis area on the plate.

[5] = test system: mouse model with pulmonary fibrosis artificially induced by bleomycin; assay: Reference Test Example (3): effects on bleomycin-induced pulmonary fibrosis; assay type: in vivo; settings: bleomycin mice, 200 mg/kg p.o. twice/day for 14 days
Experimental: A C57BL/6 mouse (male, body weight: 19 to 21 g) was intraperitoneally anesthetized with pentobarbital, and an incision was made on the cervical organ. Ten mice were used as controls. Bleomycin (produced by Nippon Kayaku Co., Ltd.) (1.5 U/kg) lysed in physiological saline was endotracheally administered to each of the control mice (n=10) twice a day for 14 days. On the other hand, the test mice were subjected to forcible oral administration of compound b (200 mg/kg), suspended in a 0.5% carboxymethyl cellulose aqueous solution, twice a day for 14 days, in addition to the above endotracheal administration. Then, the lung tissues taken from these control mice and test mice were analyzed, and further assayed for hydroxyproline level. The hydroxyproline level in the lung tissues was measured as the hydrolysate level of the lung tissues, according to the method of Kivirikko et al. (Anal. Biochem. 19, 249-255 (1967)). The level (severity) of pulmonary fibrosis was scored from 0 to 8, based on the method of Ashcort et al. (J. Clin. Pathol. 41, 467-470 (1988)). Further, the control mice and the test mice were assayed for plasma PAI-1 activity (ng/mL).

SMILES: O=C(Nc1ccc(Cl)cc1C(=O)O)c1cccc(-c2ccccc2)c1 [Example 4, 2-[(biphenyl-3-ylcarbonyl)amino]-5-chlorobenzoic acid]
initial occlusion time (antithrombotic effect) [1]: significantly prolonged

SMILES: O=C(COc1cccc(-c2ccoc2)c1)Nc1ccc(Cl)cc1C(=O)O [Example 13, 5-chloro-2-({[3-(furan-3-yl)phenoxy]acetyl}amino)benzoic acid]
initial occlusion time (antithrombotic effect) [1]: significantly prolonged

SMILES: CC(C(=O)Nc1ccc(Cl)cc1C(=O)O)(c1ccccc1)c1ccccc1 [Example 39, 5-chloro-2-[(2,2-diphenylpropanoyl)amino]benzoic acid]
activity at 2.5 µM [2]: 88.6%
activity at 10 µM [2]: 22.1%

SMILES: O=C(COc1cccc(-c2ccccc2)c1)Nc1ccc(-c2ccccc2)cc1C(=O)O [Example 45, 4-{[(biphenyl-3-yloxy)acetyl]amino}biphenyl-3-carboxylic acid]
activity at 2.5 µM [2]: 76.9%
activity at 10 µM [2]: 0.9%

SMILES: O=C(Nc1ccc(Cl)cc1C(=O)O)c1cccc(C2=CCCCC2)c1 [Example 79, 5-chloro-2-({[3-(cyclohex-1-en-1-yl)phenyl]carbonyl}amino)benzoic acid]
initial occlusion time (antithrombotic effect) [1]: significantly prolonged

Further lines, with some results ahead:

activity at 2.5 µM [2]: 69.9%
activity at 10 µM [2]: 0.4%
SMILES: O=C(COc1ccc(-c2ccccc2)cc1)Nc1ccc(-c2ccoc2)cc1C(=O)O [Example 46, 2-{[(biphenyl-4-yloxy)acetyl]amino}-5-(furan-3-yl)benzoic acid]

PAI-1 activity inhibitory action compared with tiplaxtinin [3]: higher
SMILES: CCC(CC(=O)Nc1scc(-c2ccccc2)c1C(=O)O)C(=O)Nc1scc(-c2ccccc2)c1C(=O)O (stereo not shown) [compound a, 2-[3-(3′-Carboxy-4′-phenylthiophen-2′-ylcarbamoyl)-pentanoylamino]-4-phenylthiophen-3-carboxylic acid]
fibrinolytic action [4]: inhibit the suppression of fibrinolysis caused by PAI-1

PAI-1 activity inhibitory action compared with tiplaxtinin [3]: higher
SMILES: CCC(CC(=O)Nc1scc(-c2cccs2)c1C(=O)O)C(=O)Nc1scc(-c2cccs2)c1C(=O)O (stereo not shown) [compound b, 2-[3-(3′-carboxy-4′-thienylthiophen-2′-ylcarbamoyl)-pentanoylamino]-4-thienylthiophen-3-carboxylic acid]
Hydroxyproline level in the lung tissues ([5]; n=10, mean±SE): 204.2 ± 9.5^b μg/lung
Plasma PAI-1 activity ([5]; n=10, mean±SE): 1.2 ± 0.1^b ng/mL
fibrosis score ([5]; scored from 0 to 8, bleomycin alone 4.7±0.17): 2.9±0.42
fibrinolytic action [4]: inhibit the suppression of fibrinolysis caused by PAI-1
